Experimental data from paper PMC9256669, “Monomethyl auristatin antibody and peptide drug conjugates for trimodal cancer chemo-radio-immunotherapy” (Nature Communications, 2022).
Where “and” joins values, the source holds several entries; their conditions need not be identical. Identical values can stand only once. Like-named read-outs stand apart in the source and are kept apart here. Non-standard residues stand in square brackets, D forms with d. Residues, ends and D or L forms follow the SMILES beside them. *: point of attachment. Dolaproine = CO[C@@H]([C@@H]1CCCN1)[C@@H](C)C(=O)O; Dil = CC[C@H](C)[C@H](NC)[C@@H](CC(=O)O)OC; X1 = C[C@@H](N*)[C@@H](O)c1ccccc1; NMeV = CN[C@H](C(=O)O)C(C)C

Tests used:
Detroit 562 = test: Cytotoxicity, Alamar Blue assay; format: cell-based, human; conditions: Detroit 562, 72 h drug exposure, one value per biological replicate, read-out: IC50 values
Experimental: (§1) Murine colorectal (MC38 (ENH204-FP)) cancer cell lines were obtained from Kerafast. Murine head and neck MOC1 and MOC2 were generously provided by Dr. R. Uppaluri. CAL27 PIK3CA H1047R expressing cells and 4MOSC1 cells were generated in Dr. Gutkind’s laboratory and previously characterized[42],[55]. […] MC38 cells were cultured in DMEM supplemented with 10% FBS, 1 mM sodium pyruvate (Gibco), 1% non-essential amino acids (Gibco), and 10 mM HEPES (Gibco). MOC1 and MOC2 cells were cultured in IMDM (Lonza)/F-12K nutrient mixture at a 2:1 mixture with 5% FBS, 5 ng/ml EGF (EMD Millipore), 400 ng/ml hydrocortisone (Sigma), and […] insulin (Sigma). On receipt, each cell line was expanded, cryopreserved as low passage stocks, and routinely tested for mycoplasma. Cisplatin (Enzo Biosciences), paclitaxel (Sigma), and MMAE (Concortis) were reconstituted in DMSO. Clinical-grade CDX3379 was provided by Celldex. Clinical grade cetuximab (Erbitux, Lilly Medical) was obtained from UCSD Moores Cancer Center Pharmacy.
(§2) Cells were plated in 96-well plates and exposed to a drug concentration range for 72 h. Alamar Blue was added to the cells and allowed to incubate for 2–4 h at 37 °C. Plates were analyzed using a plate reader with fluorescence measured at 560 nm. Fractional survival was normalized to untreated control cell fluorescent values. Drug IC50 was calculated using Prism software (GraphPad, La Jolla, CA). Cell viability, cytotoxicity and apoptosis were also measured by ApoTox-Glo Triplex Assay (Promega).

CAL27 = test: Cytotoxicity, Alamar Blue assay; format: cell-based, human; conditions: 72 h drug exposure, one value per biological replicate, read-out: IC50 values
Experimental: as §1, §2

[1] = system: CAL27 WT and CAL27 PIK3CA H1047R cells; test: Cell culture MMAE sensitivity of isogenic cell lines; format: cell-based, human; conditions: CAL27 WT vs CAL27 PIK3CA H1047R
Text: Specific Comment 3: “Line 266: fig 3e: the **** significance; is this IR+MMAE vs IR, or vs MMAE? Please […]
Response: Reviewer #2 raised a similar comment, (Rev #2, Comment 5). As mentioned, the statistical analysis in our original submission compared all 4 experimental groups. Based on Reviewers #2 & #4 […]
Importantly for scientific rigor & reproducibility , we would highlight that MMAE ± IR tumor response studies in syngeneic mice were replicated […]
Specific Comment 4: “Experiments with RAG mice showing that CD8+ T-cells are involved in the response to MMAE+IR are intriguing. A mechanistic explanation is however lacking. If T-cells are crucial for tumor control under IR, why is there such good response in CAL27 xenografts in nude mice with monotherapy only?” […]
adaptive immunity on durable tumor control of syngeneic tumors treated with MMAE + IR. Using depleting […]
mediated durable tumor control of MMAE radiosensitization . […]
Response: In cell culture testing, MOC1 and MOC2 cells were sensitive to MMAE and CDX3379-MMAE as measured by Alamar Blue assay. For Alamar Blue assay cytotoxicity, we measured cell viability at 72 hr of […]

[2] = system: 4NQO-induced tongue tumors; conditions: 10 nmoles ACPP-MMAE x 2 doses + whole tongue IR 5 Gy x 2 at week 20; tongues at week 22; vs untreated control
Experimental: 4-Nitroquinoline N-oxide (4NQO, Sigma Aldrich-N8141) was dissolved in propylene glycol as a stock solution (4 mg/ml) and further diluted in drinking water to a final concentration of 50 μg/ml. […] Since the entire tongue was exposed to 4NQO, the whole tongue was delineated and given 5 Gy × 2 using PXI SmART irradiator with 225 kVp X-ray tube. IR was delivered as 2 parallel opposed fields. All mice were given a full oral cavity examination biweekly, and any observed pathological changes were documented. On week 22, animals were euthanized, and tissues and oral pharynx were fixed in PAXgene tissue FIX (Qiagen) at room temperature for 12 h. Tissues were then transferred to 70% ethanol and paraffin embedded. Tongue sections were H&E stained and histopathologically assessed for the number and size of carcinoma lesions per tongue by a qualified Pathologist (A.A.M.) who was blinded manner to treatment of each slide.

B16 cells = test: Cell surface binding of Cy5-labeled ADCs by flow cytometry; format: cell-based, murine
Experimental: Murine cancer cells incubated on ice with Cy5 labeled ADC, bound Cy5 signal measured
by flow cytometry. Mean fluorescent intensity measured and subtracted from baseline fluorescence of saline incubated cells for each cell line. Data representative of 3

B16 tumors = conditions: status at the day printed in the same line, one line per mouse
Experimental: MOC1, B16, LL/2, and MC38 tumor cells were injected subcutaneously into the hindlimbs of 6-week-old female C57BL/6 albino mice in 100 µl of 1:1 Matrigel (BD) and PBS solution. Fractionated IR was delivered focally to the tumor-bearing hindlimbs (3 Gy to MC38 tumors and 5 Gy to LL/2 and B16 tumors) as indicated in figure legends using a PXI X-RAD 225 XL irradiator at maximal dose rate of 3 Gy/min with a beam-conditioning aluminum filter (Precision X-ray Irradiation). For RAG1 KO studies, 6-week-old female Rag1^tm1Mom mice were injected subcutaneously with tumor cells in their hindlimbs (Jackson Labs). For CD8 depletion studies, mice were i.p. injected with anti-CD8 (BioXCell #BE0117) at 10 mg/kg on days −6, −5 and −4 tumor cell implant and then weekly starting on day after tumor cells were injected or control antibody. […] Tumor volumes were measured and calculated using the formula as ½ * length * width^2. Mice were sacrificed when tumor volume reached >1500 mm^3, maximal tumor volume approved on our protocol for subcutaneous tumors.

CC[C@H](C)[C@@H]([C@@H](CC(=O)N1CCC[C@H]1[C@H](OC)[C@@H](C)C(=O)N[C@H](C)[C@@H](O)c1ccccc1)OC)N(C)C(=O)[C@@H](NC(=O)[C@@H](NC)C(C)C)C(C)C [MMAE, monomethyl auristatin E] (H-[NMeV]V[Dil][Dolaproine]-X1) was tested, and the IC50 (Detroit 562) was 0.253 nM and 0.25 nM and 0.189 nM and 0.195 nM, the IC50 (CAL27) was 0.235 nM and 0.239 nM (2×) and 0.237 nM and 0.177 nM and 0.185 nM and the “MMAE sensitivity of isogenic cell lines” value [1] was “did not see an appreciable difference in MMAE sensitivity between the isogenic cell lines”.
With “cyclo(RGD)fc-MC-HN-peg8-e9-oPLGC(Me)AG-r9-c-(MC-VC-PABC-MMAE)-CONH2 [ACPP-MMAE]” the total tumor burden [2] was “significantly decreased total tumor burden”.
“CDX3379-MMAE: anti-HER3 antibody CDX3379 with 4 MMAE per antibody via MC-VC-PABC linker, labeled with Cy5” was tested, and the “cell surface binding to B16 cells” value (B16 cells) was “dose response cell surface binding”, the “Survival curve, status” value (B16 tumors; CDX3379-MMAE + IR + αPD1) was 0 and the “Survival curve, status” value (B16 tumors; CDX3379-MMAE + IR) was 0 and 1.
